In patent publication US20030134783A1, “Use of cyclic heptapeptides for the inhibition of biofilm formation” (priority 2001, published 2003):
Numbered stars: 1 amine (or outer) side, 2 acyl side, 3 side chain; on linkers, the order of the positions; unused ones are H or OH. Bridge positions count the residues as written; N and C are the ends. Square brackets hold non-standard residues; d marks the D form. Peptide text beside a SMILES is read from it. X1 = CC(C)CCCCCCCCC[C@H](CC(=O)[*:1])O[*:2]

Tests used:
[1] = system: LPS mutants of S. enterica; assay: Rescue of swarming defect of LPS mutants; assay type: cell-based, Salmonella enterica; details: addition of surfactin isolated from Bacillus subtilis
[2] = system: Staphylococcus epidermis; assay: Biofilm formation in urethral catheters, crystal violet staining; assay type: cell-based; details: Surfactin-coated catheters
Method: (§1) To visualize biofilm formation in catheters, 10 μl of an overnight culture of S. enterica was inoculated into 500 μl of medium and injected into clear vinyl urethral catheters overnight at 30° C., with and without 100 μg surfactin. Biofilms were analyzed by staining with CV. The catheters were capped at both ends and incubated at 30° C. overnight. Media and growth conditions were as described above for PVC wells. Cultures were removed to determine the OD630, and the catheters were rinsed with distilled water. After drying at room temperature for 15 minutes, 700 μl of crystal violet (1%) was added to the catheters for 20 minutes. The stained biofilms were rinsed several times with distilled water, and allowed to dry at room temperature for 15 minutes before examination.
(§2) The most common causes of central urinary catheter and central venous catheter infections (caused by adherent bacteria), include Eschericila coli, Proteus mirabilis, and Pseudomonas aeruginosa, Klebseiella pneumoniae, Staphylococcus epidermis. The effect of surfactin on BF by some of these medically relevant organisms was tested by growth of the organism in urethral catheters (Table 3). Escherichia coli and Proteus mirabilis formed a biofilm mainly at the air liquid interface, while the biofilm formed by P. aeruginosa, like that formed by S. enterica, was dispersed all along the catheter.

[3] = system: Escherichia coli; assay: as above; assay type: cell-based
Method: as §1, §2

[4] = system: Proteus mirabilis; assay: as above; assay type: cell-based
Method: as §1, §2

[5] = system: Salmonella typhimurium; assay: Biofilm formation in catheters, crystal violet staining; assay type: cell-based; set-up: key to Biofilm Formation: “++++” = efficient biofilm formation; “−” = no biofilm formation; details: for inhibition of BF by S. enterica relative to surfactin: catheters, Tween 80 at 0.25%, 10 to 100 million bacterial cells
Method: as §1
S. enterica was grown in clear vinyl urethral catheters. The biofilm formed by S. enterica was dispersed all along the growth surface. […] It is important to note that the same results were obtained when venous catheters made of polyurethane were tested. The data presented here relate mainly to the urethral catheters.
When the device coated is to be inserted in the body cavity, some form of surface sterilization may be necessary. Also, endogenous fluids should not wash off the surfactin coating. Studies were conducted to determine these properties of the coating (Table 1). Urethral catheters were coated with surfactin (by passing through 500 μl of a solution of 1.0 μg/μl surfactin), and 10 mL of sterile saline solution were passed through the coated catheter.
After coating urethral cathethers with surfactin, the coated catheters were subjected to treatment in an autoclave (121° C., 15 psi) for 30 minutes or baking in a 50° C. oven for 6 hours. […] Surfactin, apparently adhered to the catheters, largely inhibiting biofilm formation.
The biofilm-inhibiting properties of surfactin are not altered after storing surfactin-baked catheters (baked for one hour at 60° C.) for 5 days at room temperature (Table 2). Further, baked on surfactin is not washed off by sterile saline dripping through the catheter at 0.3 mL/minutes for 24 hours. The BF-inhibiting properties of surfactin are stable over 50 days of storage at either room temperature or at 4° C. Thus, medical devices coated with surfactin, or a substance with surfactin-like properties, may be partially sterilized by baking at 60° C., and the sterility would be maintained over a long period of time.

[6] = system: wild-type S. enterica; assay: Biofilm formation in PVC microtitre wells, crystal violet staining; assay type: cell-based, Salmonella enterica
Method: The ability of lipopolysaccharide (LPS) mutants to form biofilms was tested in PVC microtitre plates. The biofilm assay used monitors the ability of S. enterica to attach to the wells of the microtitre dishes. The biofilm formed at the interface between the air and liquid medium, and was quantitated by staining with crystal violet (CV) as described in the examples given below.
(§3) Studies were done to test biofilm formation in microtitre wells. To quantify biofilm formation, typically, 10 μl of an overnight culture were used to inoculate PVC microtitre wells containing 90 μl of LB without NaCl, but with 2% glucose. The covered microtitre dish was sealed with parafilm during incubation at 30° C. Cultures were removed to determine the OD630, and the wells were rinsed with distilled water. After drying at room temperature for 15 minutes, 200 μl of crystal violet (1%) was added to the wells for 20 minutes The stained biofilms were rinsed several times with distilled water, allowed to dry at room temperature for 15 minutes, and extracted with 2×200 μl 95% ethanol. The OD550 was estimated using a Beckman DU-640B spectrophotometer, after adjusting the volume to 1 mL with distilled water.
The swarming defect of the LPS mutants could be rescued by the addition of the surfactin isolated from Bacillus subtilis. […]

[7] = system: S. enterica pre-formed biofilm; assay: Dispersal of pre-formed biofilm in PVC wells; assay type: cell-based, Salmonella enterica; details: for effect on pre-formed biofilms: detergent-like compounds mixed into cultures in PVC wells
Method: as §3
Surfactin was added to PVC wells after the culture had reached an OD630 of approximately 0.15-0.2. When this OD was reached, the surfactants were gently mixed into the cultures in microtitre wells. Samples were harvested and either growth as determined by OD630 or biofilm levels as measured by OD550 of CV-stained material were analyzed. The OD550 of the surfactin-treated sample decreased at a faster rate than that of the untreated sample for the initial sloughing phase of BF, resulting in an approximately 85% decrease in total biofilm by the end of the experiment at 22 hours.
The detergents tested were SDS (ionic surfactant), Tween-80 ([…] surfactant), rhamnolipid (another lipopeptide surfactant) and serrawettin. Surfactin concentration in this and the rest of the studies was maintained at 100 μg in order to compare its activity to that of the biosurfactant rhamnolipid, which affected BF when it was used at higher concentrations.

`CC(C)CCCCCCCCC[C@@H]1CC(=O)N[C@@H](CCC(=O)O)C(=O)N[C@@H](CC(C)C)C(=O)N[C@H](CC(C)C)C(=O)N[C@@H](C(C)C)C(=O)N[C@@H](CC(=O)O)C(=O)N[C@H](CC(C)C)C(=O)N[C@@H](CC(C)C)C(=O)O1` [Surfactin, surfactin] (EL[dL]VD[dL]L; linker N-C via X1) was tested, and the “swarming defect of the LPS mutants” value [1] was “rescued”, the “Biofilm formation, optical density reading based on crystal violet staining” value (“Biofilm formation … on crystal violet staining” for short) [2] was 0.40 and the “Biofilm formation … on crystal violet staining” value ([3]; Surfactin-coated catheters) was 0.05. For the same compound, the “inhibition of BF and growth” value ([3]; growth in urethral catheters) was “inhibited BF (but not growth)”, the “Biofilm formation … on crystal violet staining” value ([4]; Surfactin-coated catheters) was 0.11 and the “inhibition of BF and growth” value ([4]; growth in urethral catheters) was “inhibited BF (but not growth)”. For the same compound, the “stability of BF-inhibiting properties on storage” value ([5]; 50 days of storage at room temperature or at 4° C.) was “stable”, the “Biofilm formation … on crystal violet staining” value ([5]; Surfactin-coated catheters) was 0.05 and the “Biofilm Formation” value ([5]; catheter treatment: Surfactin, saline wash (10 mL sterile saline)) was “++++”. The “Biofilm Formation” value ([5]; catheter treatment: Surfactin, the oven (50° C., 6 hours)) was “−”, the “formation of biofilm on the catheters” value ([5]; clear vinyl urethral catheters, 100 μg surfactin, overnight at 30° C.) was “eliminated the formation of biofilm” and the “effect of oven treatment on biofilm inhibition by surfactin” value ([5]; coated catheters baked in 50° C. oven for 6 hours) was “no effect”. The “resistance of baked surfactin coating to saline washing” value ([5]; oven treatment of surfactin coated catheters) was “resistant to saline washing”, the “effectiveness of pre-coating catheters versus surfactin in the growth medium” value ([5]; surfactin solution run through catheters prior to inoculation) was “just as effective” and the “Biofilm formation … on crystal violet staining” value ([5]; surfactin-baked catheters (one hour at 60° C.), 5 days at room T.) was 0.05. For the same compound, the “Biofilm formation … on crystal violet staining” value ([5]; surfactin-baked catheters, 24 hour saline wash (0.3 mL/minutes)) was 0.06, the “Biofilm Formation” value ([5]; urethral catheter treatment: Surfactin) was “−” and the “amount of surfactin sufficient to completely abolish BF” value ([6]; PVC wells pre-coated or surfactin in growth medium, overnight at 30° C.) was less than 5 µg. The Bacterial growth ([6]; all surfactin concentrations tested) was “unaffected” and the “decrease in total biofilm (pre-formed)” value ([7]; surfactin 100 μg added at OD630 0.15-0.2, end of experiment at 22 hours) was “approximately 85%”.
With rhamnolipid [reference compound] the “inhibition of BF by S. enterica relative to surfactin” value [5] was “only half as effective” and the “effect on pre-formed biofilms” value [7] was “dispersed pre-formed biofilm”.
In the case of `CCCCCCCC/C=C\CCCCCCCC(=O)OCCOCC(OCCO)C1OCC(OCCO)C1OCCO` (centres unmarked) [Tween-80, reference compound], the “inhibition of BF by S. enterica relative to surfactin” value [5] is reported as “as effective as surfactin” and the “effect on pre-formed biofilms” value [7] is reported as “dispersed pre-formed biofilm”.
With `CCCCCCCCCCCCOS(=O)(=O)[O-].[Na+]` [SDS] the “effect on pre-formed biofilms” value [7] was “dispersed pre-formed biofilm”.
For serrawettin, the “effect on pre-formed biofilms” value [7] was “dispersed pre-formed biofilm”.
